Laboratory results published in patent US12642862B2, “Anti-CD79B antibody-drug conjugate, and preparation method therefor and pharmaceutical use thereof” (TUOJIE BIOTECH (SHANGHAI) CO., LTD., priority 2020, dated 2026).
Several values for one entry are separate records, joined by “and”; a condition that tells them apart may be missing. Identical values can stand only once. Like-named read-outs stand apart in the source and are kept apart here.

Tests used:
[1] = test system: DOHH-2 cells highly expressing human CD79B protein; assay type: cell-based; conditions: DoHH2 cells, 20 μg/mL ADC, 37° C.
Method: A cell endocytosis experiment was performed with DOHH-2 cells (DSMZ, ACC 47) highly expressing human CD79B protein to assess the endocytosis ability of ADCs.
The cells were collected by low temperature centrifugation at 4° C. for 5 min at 1000 rpm during the experiment. The cells were resuspended in 10-15 mL of FACS buffer pre-cooled on ice. The FACS buffer was composed of phosphate buffered saline (PBS), pH 7.4, with 2% fetal bovine serum (FBS). Throughout the experiment, FACS buffer was pre-cooled on ice. The cells were counted and centrifuged, and added to a 96-well plate at 300,000 cells/well. After centrifugation, the supernatant was discarded, and 12.5 μg/mL Fc blocking solution (BD, Cat No.: 564220) was added at 100 μL/well. Blocking was performed at room temperature for 10 min. Then, 20 μg/mL test ADC was added to the corresponding wells, and the plate was incubated at 4° C. for 1 h away from the light. The plate was washed twice with a pre-cooled PBS buffer to remove unbound ADCs. A complete cell culture medium (RPMI 1640 medium with 10% fetal bovine serum) was added, and the plate was incubated at 37° C. with 5% CO2 for 0 h and 4 h. […] The cells were resuspended in an FACS buffer at 200 μL/well and detected using a flow cytometer (BD FACS Calibur).

[2] = test system: DoHH2; assay type: cell-based, human; conditions: DoHH2 (CD79B high-expression), 72 h, MTT
Method: (§1) This example was performed to evaluate the effect of different ADCs on the proliferation of DoHH2, WSU-DLCL2 and Raji cells cultured in vitro.
(§2) A certain number of cells in logarithmic growth phase were seeded into a 96-well culture plate, and drugs at different concentrations were added to the culture plate for reaction for 72 h. After the reaction was completed, an MTT working solution was added for reaction for 4 h, then blue-purple crystalline formazan was dissolved with a triplex solution.
(§3) From the inhibition rate at each concentration, the half maximal inhibitory concentration IC50 was calculated using PrismGraph 8.

[3] = test system: WSU-DLCL2; assay type: cell-based, human; conditions: WSU-DLCL2 (CD79B low-expression), 72 h, MTT
Method: as §1, §2, §3

[4] = test system: Raji; assay type: cell-based; conditions: Raji (CD79B negative-expression), 72 h, MTT
Method: as §1, §2, §3

[5] = test system: human diffuse large B-cell lymphoma WSU-DLCL2-induced nude mouse subcutaneous xenograft tumor; assay type: in vivo, nude mice (BALB/c-nu); conditions: for Mean tumor volume (mm^3 ± SEM) D0 / Mean tumor volume (mm^3 ± SEM) D21 / Tumor growth inhibition (%) D21 / T/C (%) D21 / Partial regression: IV; for Mean tumor volume (mm^3 ± SEM) D0: baseline at grouping; for Mean tumor volume (mm^3 ± SEM) D21 / Tumor growth inhibition (%) D21 / T/C (%) D21 / Partial regression: single dose D0; for T/C (%) D21: control IgG1; for Partial regression: tumors (of 6) with volume on D21 less than on D0
Method: This example was performed to evaluate and compare the efficacy of ADC drugs on nude mouse subcutaneous xenograft tumor.
Cells and mice: human diffuse large B-cell lymphoma WSU-DLCL2 cells were purchased from American Type Culture Collection. WSU-DLCL2 cells were cultured in a 10 cm petri dish with an RPMI 1640 culture medium (Gibco) containing 10% fetal bovine serum, penicillin and streptomycin and incubated in an incubator at 37° C. with 5% CO2. Subculturing was performed 2-3 times a week, and cells were collected, counted and seeded when they were in exponential growth phase.
Nude mice, BALB/c-nu, 35 days of age, female, were purchased from Beijing Huafukang Biotechnology Co., Ltd, with production license number of SCXK (Beijing) 2019-0008, and animal certification number of 1103222011004014. Housing environment: SPF grade.
The experimental index is to study the effect of the drug on the tumor growth, and the specific index is T/C % or tumor growth inhibition TGI (%).
Tumor diameters were measured twice a week with a vernier caliper and tumor volume (V) was calculated according to the following formula: V=½×a×b^2, where a and b represent length and width, respectively.
T/C (%)=(T−T0)/(C−C0)×100, where T and C represent the tumor volume of animals at the end of the experiment in the treatment group and control group, respectively; T0 and C0 represent the tumor volume of animals at the beginning of the experiment in the treatment group and control group, respectively; where T is the tumor volume of the ADC administered and C is the tumor volume of IgG1 administered as a control group.
At the end of the experiment, at the experiment endpoint, or when the mean tumor volume in the solvent group reached 1500 mm^3, the animals were sacrificed by CO2 anesthesia and dissected to give the tumors. The tumors were photographed. Unless otherwise indicated, comparison between tumor volumes of the two groups was made by two-way ANOVA test, with P<0.05 defined as statistically significant difference.

[6] = test system: human diffuse large B-cell lymphoma WSU-DLCL2-induced nude mouse subcutaneous xenograft tumor; assay type: in vivo, nude mice (BALB/c-nu); conditions: 3 mg/kg, IV
Method: This example was performed to further evaluate and compare the efficacy of ADC drugs on WSU-DLCL2-induced nude mouse subcutaneous xenograft tumor.
Experimental steps: each nude mouse was subcutaneously inoculated with 2×10^7 WSU-DLCL2 cells, and after the tumor volume reached 100-150 mm^3, the animals were grouped according to tumor volume (D0). The mice were administrated by intravenous injection (IV) at an administration volume of 10 mL/kg. The tumor volumes and body weights were measured twice a week and the results were recorded.
Unless otherwise indicated, comparison between tumor volumes of the two groups was made by two-tailed Student's t-test, with P<0.05 defined as statistically significant difference.

[7] = test system: human follicular lymphoma DOHH-2-induced nude mouse subcutaneous xenograft tumor; assay type: in vivo, nude mice (BALB/c-nu); conditions: 1 mg/kg, IV
Method: This example was performed to further evaluate and compare the efficacy of ADC drugs on DoHH2-induced nude mouse subcutaneous xenograft tumor.
2. Cells and mice: DOHH-2 cells were purchased from DSMZ, Germany.
Nude mice, BALB/c-nu, 4-5 weeks of age, female, were purchased from Shanghai Lingchang Biotechnology Co., Ltd, with production license number of SCXK (Shanghai) 2018-0003, and animal certification number of 20180003010222. Housing environment: SPF grade.
3. […] The mice were administrated by intravenous injection (IV) at an administration volume of 10 mL/kg.
At the end of the experiment, at the experiment endpoint, or when the mean tumor volume in the solvent group reached 1500 mm^3, the animals were sacrificed by CO2 anesthesia and dissected to give the tumors. The tumors were photographed.

[8] = molecular target: T1, human CD79B (Homo sapiens, UniProt P40259); assay: Biacore affinity assay of CD79B antibodies and ADCs; design: His; purchased Sino Biological 29750-H08H; conditions: binding force to human CD79B protein
T1 sequence (P40259 29-159 limits assumed): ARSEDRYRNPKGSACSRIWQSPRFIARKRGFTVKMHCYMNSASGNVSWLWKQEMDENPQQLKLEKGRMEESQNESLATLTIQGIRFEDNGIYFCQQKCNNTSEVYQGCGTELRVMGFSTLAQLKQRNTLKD
Text: Experimental instruments, materials and reagents: Biacore T200 (GE); biosensor chip CM5 (Cat. #BR-1005-30, GE); amino coupling kit (Cat. #BR-1000-50, GE); human antibody capture kit (Cat. #BR-1008-39, GE); human CD79B-His protein (Cat. #29750-H08H, Sino Biological); HBS-EP+10× buffer (Cat. #BR-1006-69, GE) diluted to 1× (pH 7.4) with D. I. Water.
Experimental procedures: human antibody capture antibodies were covalently coupled to a CM5 biochip according to the method described instructions of the human antibody capture kit for affinity capture of a certain amount of CD79B antibody.
Statistics and analysis of data: data were fitted by BIAevaluation version 4.1, GE software using a (1:1) Langmuir model to obtain affinity values.

In the case of “ADC-8: SN8 conjugated with MC-VC-PAB-MMAE; positive drug ADC-8 (namely Polivy) [reference compound]”, the “Endocytosis rate (4 h)” value [1] is reported as 76%, the “IC50” value [2] is reported as 0.0806 µg/mL and the “IC50” value [3] is reported as 0.1169 µg/mL. The “IC50” value [4] was over 10 µg/mL, the “efficacy on WSU-DLCL2-induced nude mouse subcutaneous xenograft tumor (conclusion)” value ([5]; 3 mg/kg or 10 mg/kg, single intravenous injection) was “significant efficacy” and the “Mean tumor volume (mm^3 ± SEM) D0” value ([5]; 3 mg/kg) was 117.6 ± 3.0 mm^3. The “Mean tumor volume (mm^3 ± SEM) D21” value ([5]; 3 mg/kg) was 547.2 ± 38.1 mm^3, the “Tumor growth inhibition (%) D21” value ([5]; 3 mg/kg) was 39% and the “T/C (%) D21” value ([5]; 3 mg/kg) was 61%. For the same substance, the Partial regression ([5]; 3 mg/kg) was 0, the “Mean tumor volume (mm^3 ± SEM) D0” value ([5]; 10 mg/kg) was 115.0 ± 3.7 mm^3 and the “Mean tumor volume (mm^3 ± SEM) D21” value ([5]; 10 mg/kg) was 167.8 ± 50.3 mm^3. For the same substance, the “Tumor growth inhibition (%) D21” value ([5]; 10 mg/kg) was 93%, the “T/C (%) D21” value ([5]; 10 mg/kg) was 7% and the Partial regression ([5]; 10 mg/kg) was 4/6 and 4. The “Mean tumor volume (mm^3) D0” value ([6]; D0, baseline at grouping) was 105.0 mm^3, the “% T/C D21” value ([6]; single dose D0, D21) was 90% and the “% Tumor growth inhibition D21” value ([6]; single dose D0, D21) was 10%. For the same substance, the “Mean tumor volume (mm^3) D21” value ([6]; single dose D0, D21) was 792.6 mm^3, the Partial regression ([6]; single dose D0, tumors of 6) was 0 and the “Mean tumor volume (mm^3) D0” value ([7]; D0, baseline at grouping) was 117.1 mm^3. For the same substance, the “Mean tumor volume (mm^3) D20” value ([7]; single dose D0, D20) was 862.1 mm^3, the “Tumor growth inhibition (%) D20” value ([7]; single dose D0, D20) was 41% and the “T/C (%) D20” value ([7]; single dose D0, D20, control IgG1) was 59%. For the same substance, the Partial regression ([7]; single dose D0, tumors of 6) was 0 and the EC50 [8] was 5.98 nM.
